Columns and labels:
[1] = molecular target: T1, GluN1/2A receptors (UniProt P35439+Q12879); test: Whole-cell patch-clamp, HEK293T cells expressing recombinant GluN1/2A; format: cell-based; conditions: 100 μM CNS4 applied 4 s before and with 100 μM glutamate + 100 μM glycine; agonist alone −323.5 ± 82 pA; n = 4(3), p = .12
T1 construct: expressed in transfected cells; host or cells: HEK-293T
Description: (§1) Whole‐cell patch‐clamp electrophysiology studies were carried out in HEK‐293T cells expressing recombinant NMDA receptors that lack native functional NMDA receptors.[29], [30], [31] An equal quantity of (1 μg) cDNA for GluN1a, GluN2 subunits were co‐transfected 24‐48 h before patch‐clamp electrophysiology assay. […] Cells were carefully washed before performing experiments and were used for the electrophysiology experiments after 24 to 48 h incubation at 37°C with 5%CO2. The whole‐cell patch‐clamp electrophysiology assay was performed using semi‐automated patch‐clamp equipment, Port‐a‐Patch (Nanion Technologies GmbH). Following are the constituents of various solutions used for patch‐clamp electrophysiology: internal solution ([mM] NaCl 10, EGTA 20, CsF 110, HEPES 10), Mg‐free external (recording) solution ([mM] NaCl 140, KCl 4, CaCl2 2, HEPES 10, D‐GlucoseMonohydrate 5), and Mg‐free seal enhancer solution ([mM] NaCl 80, KCl 3, CaCl2 35, HEPES 10). Nanion NPC chips with […] resistance were used for the HEK‐293T cell recordings.
(§2) FIGURE 1 CNS4 sensitizes ambient concentration of agonists in GluN2 subunit dependent manner. […] Statistical significance was calculated from the Wilcoxon matched‐pairs signed rank test, except the comparison between 1/2A & 1/2AB CNS4 with no agonist data, which was done by unpaired t‐test. […]

[2] = system: untransfected HEK293T cells; test: Whole-cell patch-clamp on untransfected HEK293T cell; format: cell-based, human; conditions: 100 μM CNS4
Description: as §1, §2

[3] = molecular target: T2, GluN1/2B NMDA receptors (Rattus norvegicus, UniProt P35439+Q00960); test: TEVC agonist dose-response, Xenopus oocytes expressing 1/2B; format: cell-based; conditions: with 30 μM CNS4
T2 construct: SEP (super-ecliptic pHluorin; printed only as 'sep' in the plasmid name); host or cells: Xenopus oocytes (cRNA injection)
T2 sequence (Q00960 27-1482, other chains not shown): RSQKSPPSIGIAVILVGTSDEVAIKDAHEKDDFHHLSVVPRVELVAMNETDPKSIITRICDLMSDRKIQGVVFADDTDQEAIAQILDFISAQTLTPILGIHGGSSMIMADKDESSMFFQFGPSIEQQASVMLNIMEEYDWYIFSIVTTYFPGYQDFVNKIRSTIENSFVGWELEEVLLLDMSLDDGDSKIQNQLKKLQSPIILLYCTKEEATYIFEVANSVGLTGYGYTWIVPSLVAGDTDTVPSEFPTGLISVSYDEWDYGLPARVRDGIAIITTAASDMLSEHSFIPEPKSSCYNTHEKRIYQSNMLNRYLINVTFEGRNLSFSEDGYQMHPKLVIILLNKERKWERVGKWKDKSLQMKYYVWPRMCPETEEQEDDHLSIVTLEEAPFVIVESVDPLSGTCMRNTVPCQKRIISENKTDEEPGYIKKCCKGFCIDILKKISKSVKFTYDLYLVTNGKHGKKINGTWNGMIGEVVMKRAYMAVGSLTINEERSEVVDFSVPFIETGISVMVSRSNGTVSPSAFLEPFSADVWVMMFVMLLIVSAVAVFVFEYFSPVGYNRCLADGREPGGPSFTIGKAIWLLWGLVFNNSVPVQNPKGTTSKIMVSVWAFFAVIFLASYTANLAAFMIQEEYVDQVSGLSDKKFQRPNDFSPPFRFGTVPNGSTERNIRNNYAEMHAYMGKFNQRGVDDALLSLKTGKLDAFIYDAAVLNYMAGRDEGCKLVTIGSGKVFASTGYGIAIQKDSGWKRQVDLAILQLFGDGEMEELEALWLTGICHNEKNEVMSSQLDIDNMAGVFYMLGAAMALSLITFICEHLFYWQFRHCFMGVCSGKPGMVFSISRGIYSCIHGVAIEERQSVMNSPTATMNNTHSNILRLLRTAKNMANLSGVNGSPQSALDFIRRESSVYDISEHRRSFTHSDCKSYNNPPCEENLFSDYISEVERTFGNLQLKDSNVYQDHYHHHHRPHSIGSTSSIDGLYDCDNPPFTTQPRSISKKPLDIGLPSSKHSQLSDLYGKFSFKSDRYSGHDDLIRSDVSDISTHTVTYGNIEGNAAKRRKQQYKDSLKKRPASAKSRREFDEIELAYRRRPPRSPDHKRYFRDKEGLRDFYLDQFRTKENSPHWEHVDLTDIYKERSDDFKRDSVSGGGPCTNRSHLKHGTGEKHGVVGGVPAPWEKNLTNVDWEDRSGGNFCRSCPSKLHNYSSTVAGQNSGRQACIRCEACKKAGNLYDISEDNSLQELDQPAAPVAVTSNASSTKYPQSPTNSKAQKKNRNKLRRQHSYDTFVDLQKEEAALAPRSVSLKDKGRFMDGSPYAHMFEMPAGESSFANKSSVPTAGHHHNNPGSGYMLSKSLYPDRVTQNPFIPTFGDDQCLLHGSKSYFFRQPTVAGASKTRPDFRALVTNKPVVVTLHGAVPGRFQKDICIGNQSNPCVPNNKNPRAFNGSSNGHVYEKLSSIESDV
Text: NMDA receptor constructs: cDNA encoding the NMDA receptor1a subunit (GluN1a) was obtained from Dr. Nakanishi (Kyoto, Japan). cDNA encoding the GluN2B (pci_sepGluN2B), originally developed in the Malinow lab,[33] was purchased from Addgene (cat# 23998), Cambridge, MA. cDNA encoding the GluN2C and GluN2D were purchased from GenScript, New Jersey, USA. Mutated GluN1, 2A and 2B cDNA constructs capable of assembling as GluN1/2A/2B triheteromeric (1/2AB) receptors[34] were obtained from Dr. Paoletti (Laboratoire de Neurobiologie, CNRS). These constructs have been previously tested for 1/2AB receptor activity of GluN1/2A receptor‐selective potentiators.[35] […]
Electrophysiological responses were measured using a standard two‐microelectrode voltage‐clamp workstation (Warner Instruments model OC‐725C) designed to provide a fast clamp of large cells. […] Response magnitude was determined in Xenopus oocytes expressing different NMDA receptor subunits (GluN1/2A, 1/2B, 1/2C, 1/2D, and 1/2A/2B) by the steady plateau response elicited by bath application of different agonist concentrations. […] Statistical significance was determined at the overall alpha level 0.05, using appropriate statistical methods as described in all figure captions. […]

T1 sequence (Q12879 23-1464, other chains not shown): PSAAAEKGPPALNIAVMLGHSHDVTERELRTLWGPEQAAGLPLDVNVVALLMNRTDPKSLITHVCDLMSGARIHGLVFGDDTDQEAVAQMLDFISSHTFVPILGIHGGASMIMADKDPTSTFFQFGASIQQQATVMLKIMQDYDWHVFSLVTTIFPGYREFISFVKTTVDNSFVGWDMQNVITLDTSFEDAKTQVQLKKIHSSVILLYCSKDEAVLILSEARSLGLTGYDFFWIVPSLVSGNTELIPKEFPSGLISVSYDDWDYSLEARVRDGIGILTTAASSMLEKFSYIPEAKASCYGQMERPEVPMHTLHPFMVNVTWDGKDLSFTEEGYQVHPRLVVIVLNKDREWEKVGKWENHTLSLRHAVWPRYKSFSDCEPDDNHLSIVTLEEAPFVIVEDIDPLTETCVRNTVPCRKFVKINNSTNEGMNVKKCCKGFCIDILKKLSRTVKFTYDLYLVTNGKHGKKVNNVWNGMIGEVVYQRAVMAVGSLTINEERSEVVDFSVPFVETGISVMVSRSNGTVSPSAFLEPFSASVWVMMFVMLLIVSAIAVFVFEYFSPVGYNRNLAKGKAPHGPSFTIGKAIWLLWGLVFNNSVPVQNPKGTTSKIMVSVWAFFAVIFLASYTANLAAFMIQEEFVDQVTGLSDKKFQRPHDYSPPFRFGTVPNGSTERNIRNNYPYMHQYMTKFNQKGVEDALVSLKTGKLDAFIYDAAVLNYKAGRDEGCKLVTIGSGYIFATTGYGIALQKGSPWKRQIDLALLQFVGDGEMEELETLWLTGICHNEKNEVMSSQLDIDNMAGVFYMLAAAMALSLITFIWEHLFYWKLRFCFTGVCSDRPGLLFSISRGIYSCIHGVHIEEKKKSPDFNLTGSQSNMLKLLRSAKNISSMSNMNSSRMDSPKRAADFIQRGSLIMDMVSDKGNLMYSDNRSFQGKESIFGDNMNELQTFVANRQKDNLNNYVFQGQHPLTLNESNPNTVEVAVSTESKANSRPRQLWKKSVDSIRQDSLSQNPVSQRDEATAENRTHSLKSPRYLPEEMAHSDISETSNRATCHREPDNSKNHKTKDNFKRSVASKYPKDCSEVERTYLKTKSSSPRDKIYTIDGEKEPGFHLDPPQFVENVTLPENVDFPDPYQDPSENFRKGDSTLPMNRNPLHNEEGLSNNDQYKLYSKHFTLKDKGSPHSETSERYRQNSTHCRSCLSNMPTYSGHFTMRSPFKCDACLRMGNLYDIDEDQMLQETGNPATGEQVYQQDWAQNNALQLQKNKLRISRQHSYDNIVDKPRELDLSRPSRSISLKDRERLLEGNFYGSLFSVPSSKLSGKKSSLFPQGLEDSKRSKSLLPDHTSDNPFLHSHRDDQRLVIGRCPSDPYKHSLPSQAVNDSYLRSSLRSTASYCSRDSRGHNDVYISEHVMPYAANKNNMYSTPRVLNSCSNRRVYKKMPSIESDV

SMILES: O=C(NC(=S)N1CCCCC1c1cccnc1)c1ccc(F)cc1 (stereo not shown) [CNS4]
- Peak current amplitude [1]: −469.3 ± 152 pA
- Current response [2]: did not produce any measurable current response
- Glycine efficacy: relative fold change in current at highest glycine concentration ([3]; 100 μM glutamate constant, relative to 1 μM glycine, p = .0303): 0.88 ± 0.07 fold
- Glutamate efficacy: relative fold change in current at highest glutamate concentration ([3]; 100 μM glycine constant, relative to 1 μM glutamate, p = .5104): 4.27 ± 0.82 fold

From publication PMC10245146, “CNS4 causes subtype‐specific changes in agonist efficacy and reversal potential of permeant cations in NMDA receptors” (Pharmacology Research & Perspectives, 2023)
